Kd and IC50 data for 20 compounds are collected here from patent US20230279025A1, “KRAS G12D INHIBITORS” (Mirati Therapeutics, Inc., priority 2020, published 2023).

Assay [1] has as its target T1, KRas G12D (Homo sapiens (Human), UniProt P01116, G12D). The assay is described as follows: KRas G12D Surface Plasmon Resonance (SPR) Binding Assay. Conditions: Biacore T200, immobilized biotinylated KRAS protein, 1:1 binding model. How it is done:
Briefly, 1L of 1.05X HBS-Mg buffer (262.5 mM Bioultra Hepes, pH 7.5, 157.5 mM NaCl, 105 mM MgCl2, 0.525 mM TCEP, 0.0305% Brij-35) was prepared and filter sterilized using a 0.22 μm bottle top filter. Approximately 50 mL of 1.05X HBS-Mg buffer was removed and saved for future dilutions. A 50 mL aliquot of DMSO (Sigma Aldrich DMSO Lot. #SHBK2079) was added and continued to stir for 10 minutes, creating the final 1.0X HBS-Mg buffer (250 mM Bioultra Hepes pH 7.5, 150 mM NaCl, 100 mM MgCl2, 0.5 mM TCEP, 0.03% Brij-35).
Biacore T200 instrument was primed using 1.0X HBS-Mg buffer before docking a GE Streptavidin (SA) chip and then primed two additional times prior to beginning the immobilization step. All immobilized protein mixtures were created using 3-5 mg/mL Biotinylated Avidin-tagged KRAS protein using the following immobilization settings: SA chip type, 1 flow cells per cycle, 720 second contact time, and 5 ul/min flow rate. Normalization of the detector was also performed during the immobilization step using the GE BiaNormalize solution.
All compounds were diluted to 10 mM in 100% DMSO prior to being diluted 20X in 1.05X buffer. Another 10X dilution was created using 1.0X buffer prior to performing a series of 3X dilutions to create a compound concentration curve using the following assay settings: 20C analysis temperature, General Settings=10 Hz data collection rate and multi-detection; Assay Steps=all set to LMW kinetics; Cycle Types=LMW kinetics (60 s contact time, 120 s dissociation time, 100 ul/min flow rate, extra wash after injection with 50% DMSO, flow path 1,2,3,4); Flow path detection=2-1, 4-3). Data evaluation was performed using the Biacore T200 Evaluation software and data fit to 1:1 binding model. ND=not determined.
A general note: Surface plasmon resonance follows binding to a sensor surface in real time, without labels.
Target sequence in this assay (P01116-2 other isoform, or with tags, fused parts or gaps G12D): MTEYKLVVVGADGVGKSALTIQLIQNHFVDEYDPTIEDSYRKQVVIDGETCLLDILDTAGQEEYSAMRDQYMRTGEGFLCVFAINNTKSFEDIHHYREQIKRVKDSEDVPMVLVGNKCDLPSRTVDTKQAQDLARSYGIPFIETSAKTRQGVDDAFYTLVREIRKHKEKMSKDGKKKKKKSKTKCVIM

The target in assay [2] is T1, KRas G12D. The assay is described as follows: KRas G12D Binding Assay (TR-FRET displacement of Cy5 labelled tracer). The note with it: GDP-loaded KRAS G12D (amino acids 1:169), 60 minute incubation at 22° C. The protocol: After a 60 minute incubation at 22° C., the reaction was measured using a PerkinElmer EnVision multimode plate reader via TR-FRET dual wavelength detection, and the percent of control (POC) calculated using a ratiometric emission factor. […] The POC values were fit to a 4-parameter logistic curve and the IC50 value was determined as the concentration where the curve crosses 50 POC.
ND stands for “not determined.”
Target sequence in this assay (P01116 other isoform, or with tags, fused parts or gaps G12D): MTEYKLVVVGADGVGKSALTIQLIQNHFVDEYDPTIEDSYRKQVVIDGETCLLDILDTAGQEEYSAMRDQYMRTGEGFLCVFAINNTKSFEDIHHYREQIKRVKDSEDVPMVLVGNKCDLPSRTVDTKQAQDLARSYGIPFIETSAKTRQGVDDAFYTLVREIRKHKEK

Where a name gives a salt, the structure may show the parent alone.

`CCN1CCC[C@H]1COc1nc(N2C[C@H]3CC[C@@H](C2)N3)c2cnc(-c3cc(O)cc4ccccc34)c(F)c2n1` [Example 11, 4-(4-((1R,5S)-3,8-diazabicyclo[3.2.1]octan-3-yl)-2-(((S)-1-ethylpyrrolidin-2-yl)methoxy)-8-fluoropyrido[4,3-d]pyrimidin-7-yl)naphthalen-2-ol]: the Kd (as a rule, the concentration at which binding is half-saturated) at KRas G12D [1] stood at 4.9 nM.

`CN1CCC[C@H]1CCOc1nc(N2C[C@H]3CC[C@@H](C2)N3)c2cnc(-c3cc(O)cc4ccccc34)c(F)c2n1` [Example 10, 4-(4-((1R,5S)-3,8-diazabicyclo[3.2.1]octan-3-yl)-8-fluoro-2-(2-((S)-1-methylpyrrolidin-2-yl)ethoxy)pyrido[4,3-d]pyrimidin-7-yl)naphthalen-2-ol] displayed a Kd at KRas G12D [1] of 33.8 nM.

In turn, `COc1cccnc1CCOc1nc(N2C[C@H]3CC[C@@H](C2)N3)c2cnc(-c3cc(O)cc4ccccc34)c(F)c2n1` [Example 140, 4-(4-((1R,5S)-3,8-diazabicyclo[3.2.1]octan-3-yl)-8-fluoro-2-(2-(3-methoxypyridin-2-yl)ethoxy)pyrido[4,3-d]pyrimidin-7-yl)naphthalen-2-ol] displayed a Kd at KRas G12D [1] of 5590 nM.

On KRas G12D [1], `Oc1cc(-c2ncc3c(N4C[C@H]5CC[C@@H](C4)N5)nc(OC[C@@H]4CCCN4Cc4ccccc4)nc3c2F)c2ccccc2c1` [Example 12, 4-(2-(((S)-1-benzylpyrrolidin-2-yl)methoxy)-4-((1R,5S)-3,8-diazabicyclo[3.2.1]octan-3-yl)-8-fluoropyrido[4,3-d]pyrimidin-7-yl)naphthalen-2-ol] came in with a Kd of 11 nM.

`CN(C)C(=O)CCOc1nc(N2C[C@H]3CC[C@@H](C2)N3)c2cnc(-c3cc(O)cc4ccccc34)c(F)c2n1` [Example 13, 3-((4-((1R,5S)-3,8-diazabicyclo[3.2.1]octan-3-yl)-8-fluoro-7-(3-hydroxynaphthalen-1-yl)pyrido[4,3-d]pyrimidin-2-yl)oxy)-N,N-dimethylpropanamide] gave a Kd on KRas G12D [1] of 511 nM.

The compound `CN1CCC[C@H]1COc1nc(N2C[C@H]3CC[C@@H](C2)N3)c2cnc(-c3cccc4c3CCC4)c(F)c2n1` [Example 23, 4-((1R,5S)-3,8-diazabicyclo[3.2.1]octan-3-yl)-7-(2,3-dihydro-1H-inden-4-yl)-8-fluoro-2-(((S)-1-methylpyrrolidin-2-yl)methoxy)pyrido[4,3-d]pyrimidine] gave a Kd at KRas G12D [1] of 807 nM.

As for `Cc1ccc2sc(N)nc2c1-c1ncc2c(N3C[C@H]4CC[C@@H](C3)N4)nc(OCC34CCCN3CCC4)nc2c1F` [Example 458, 4-(4-((1R,5S)-3,8-diazabicyclo[3.2.1]octan-3-yl)-8-fluoro-2-((hexahydro-1H-pyrrolizin-7a-yl)methoxy)pyrido[4,3-d]pyrimidin-7-yl)-5-methylbenzo[d]thiazol-2-amine], the IC50 – broadly, the concentration at which inhibition is half-maximal – at KRas G12D [2] was determined as 143 nM.

For the compound `Oc1cc(-c2ncc3c(N4C[C@H]5CC[C@@H](C4)N5)nc(OCC45CCCN4C(CF)CC5)nc3c2F)c2c(Cl)cccc2c1` (stereo partly drawn) [Example 400, 4-(4-((1R,5S)-3,8-diazabicyclo[3.2.1]octan-3-yl)-8-fluoro-2-((3-(fluoromethyl)tetrahydro-1H-pyrrolizin-7a(5H)-yl)methoxy)pyrido[4,3-d]pyrimidin-7-yl)-5-chloronaphthalen-2-ol], the IC50 on KRas G12D [2] stood at 4.2 nM.

Turning to `CN1CC[C@@H](Oc2nc(N3C[C@H]4CC[C@@H](C3)N4)c3cnc(-c4cccc5cccc(Cl)c45)c(F)c3n2)C1` [Example 358, 4-((1R,5S)-3,8-diazabicyclo[3.2.1]octan-3-yl)-7-(8-chloronaphthalen-1-yl)-8-fluoro-2-(((R)-1-methylpyrrolidin-3-yl)oxy)pyrido[4,3-d]pyrimidine], at KRas G12D [2], the 50% inhibitory concentration (IC50) came out at 1980 nM.

Take `Fc1c(-c2cccc(Cl)c2C(F)(F)F)ncc2c(N3C[C@H]4CC[C@@H](C3)N4)nc(OCC34CCCN3CCC4)nc12` [Example 328, 4-((1R,5S)-3,8-diazabicyclo[3.2.1]octan-3-yl)-7-(3-chloro-2-(trifluoromethyl)phenyl)-8-fluoro-2-((tetrahydro-1H-pyrrolizin-7a(5H)-yl)methoxy)pyrido[4,3-d]pyrimidine]: the IC50 at KRas G12D [2] came out at 9.4 nM.

As for `Cc1nccn1CCOc1nc(N2C[C@H]3C[C@@H](O)[C@@H](C2)N3)c2cnc(-c3cccc4cccc(Cl)c34)c(F)c2n1` [Example 167, (1R,5R,6R)-3-(7-(8-chloronaphthalen-1-yl)-8-fluoro-2-(2-(2-methyl-1H-imidazol-1-yl)ethoxy)pyrido[4,3-d]pyrimidin-4-yl)-3,8-diazabicyclo[3.2.1]octan-6-ol], the IC50 at KRas G12D [2] amounted to 226 nM.

On KRas G12D [2], `Fc1c(-c2cccc3cccc(C4CC4)c23)ncc2c(N3C[C@H]4CC[C@@H](C3)N4)nc(OCC34CCCN3CCC4)nc12` [Example 335, 4-((1R,5S)-3,8-diazabicyclo[3.2.1]octan-3-yl)-7-(8-cyclopropylnaphthalen-1-yl)-8-fluoro-2-((tetrahydro-1H-pyrrolizin-7a(5H)-yl)methoxy)pyrido[4,3-d]pyrimidine] showed an IC50 of 25.8 nM.

For `CN(C)c1nc(N2CC3CCC(C2)N3)c2cnc(-c3cc(O)cc4ccccc34)c(F)c2n1` [Example 184, 4-[4-(3,8-diazabicyclo[3.2.1]octan-3-yl)-2-(dimethylamino)-8-fluoro-pyrido[4,3-d]pyrimidin-7-yl]naphthalen-2-ol], the IC50 on KRas G12D [2] came out at 1990 nM.

In turn, `Fc1c(-c2cccc3cccc(Cl)c23)ncc2c(N3C[C@H]4CC[C@@H](C3)N4)nc(OC[C@@H]3CCCO3)nc12` [Example 136, 4-((1R,5S)-3,8-diazabicyclo[3.2.1]octan-3-yl)-7-(8-chloronaphthalen-1-yl)-8-fluoro-2-(((S)-tetrahydrofuran-2-yl)methoxy)pyrido[4,3-d]pyrimidine] returned an IC50 on KRas G12D [2] of 5150 nM.

For `CC(C)c1c(F)cc(O)cc1-c1ncc2c(N3C[C@H]4CC[C@@H](C3)N4)nc(OC[C@@]34CCCN3C[C@H](F)C4)nc2c1F` [Example 290, 3-(4-((1R,5S)-3,8-diazabicyclo[3.2.1]octan-3-yl)-8-fluoro-2-(((2R,7aS)-2-fluorotetrahydro-1H-pyrrolizin-7a(5H)-yl)methoxy)pyrido[4,3-d]pyrimidin-7-yl)-5-fluoro-4-isopropylphenol], at KRas G12D [2], the IC50 came to 2.1 nM.

Compound `Fc1ccc2cccc(-c3ncc4c(N5C[C@H]6CC[C@@H](C5)N6)nc(OCC56CCCN5CCC6)nc4c3F)c2c1Cl` [Example 98, 4-((1R,5S)-3,8-diazabicyclo[3.2.1]octan-3-yl)-7-(8-chloro-7-fluoronaphthalen-1-yl)-8-fluoro-2-((tetrahydro-1H-pyrrolizin-7a(5H)-yl)methoxy)pyrido[4,3-d]pyrimidine bis(2,2,2-trifluoroacetate)] displayed an IC50 at KRas G12D [2] of 1 nM.

Compound `O[C@@H]1C[C@@H]2CN(c3nc(OCCn4ccnc4C(F)F)nc4c(F)c(-c5cccc6cccc(Cl)c56)ncc34)C[C@H]1N2` [Example 172, (1R,5R,6R)-3-(7-(8-chloronaphthalen-1-yl)-2-(2-(2-(difluoromethyl)-1H-imidazol-1-yl)ethoxy)-8-fluoropyrido[4,3-d]pyrimidin-4-yl)-3,8-diazabicyclo[3.2.1]octan-6-ol] showed an IC50 at KRas G12D [2] of 689 nM.

Regarding `O=C(OC[C@H]1CC[C@@]2(COc3nc(N4CC5CCC(C4)N5)c4cnc(-c5cccc6cccc(Cl)c56)c(F)c4n3)CCCN12)N1CCCCC1` [Example 444, ((3R,7aR)-7a-(((4-(3,8-diazabicyclo[3.2.1]octan-3-yl)-7-(8-chloronaphthalen-1-yl)-8-fluoropyrido[4,3-d]pyrimidin-2-yl)oxy)methyl)hexahydro-1H-pyrrolizin-3-yl)methyl piperidine-1-carboxylate], on KRas G12D [2], the concentration for half-maximal inhibition (IC50) was 5.5 nM.

Consider `O[C@H]1CN2CCC[C@]2(COc2nc(N3CC4CCC(C3)N4)c3cnc(-c4cccc5cccc(Cl)c45)c(F)c3n2)C1` (stereo in doubt) [Example 224, 7a-(((4-((1R,5S)-3,8-diazabicyclo[3.2.1]octan-3-yl)-7-(8-chloronaphthalen-1-yl)-8-fluoropyrido[4,3-d]pyrimidin-2-yl)oxy)methyl)hexahydro-1H-pyrrolizin-2-ol bis-hydrochloride], for which the IC50 on KRas G12D [2] was 27 nM.

Regarding `C[C@@H]1C[C@H]1c1ccccc1-c1ncc2c(N3C[C@H]4CC[C@@H](C3)N4)nc(OCC34CCCN3CCC4)nc2c1F` [Example 288, 4-((1R,5S)-3,8-diazabicyclo[3.2.1]octan-3-yl)-8-fluoro-2-((hexahydro-1H-pyrrolizin-7a-yl)methoxy)-7-(2-((1R,2R)-2-methylcyclopropyl)phenyl)pyrido[4,3-d]pyrimidine], on KRas G12D [2], the concentration for half-maximal inhibition (IC50) stood at 590 nM.
